Data as given in the supplement of paper PMC10307832.

What was measured:
Assay in all cases: relative viability (nuclei count vs DMSO), 5 days (fraction); higher = more cells survive
Dovitinib + Vorinostat = compound: CN1CCN(c2ccc3nc(-c4c(N)c5c(F)cccc5[nH]c4=O)[nH]c3c2)CC1 [Dovitinib] + O=C(CCCCCCC(=O)Nc1ccccc1)NO [Vorinostat] (partner 1 µM)
In short: (§1)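 Relative viability equals treated-well nuclei counts divided by vehicle-well nuclei counts. Counts came from 4× images of lung cancer cell lines grown in 1536-well plates for 5 days after pin-tool dosing on the day after seeding. Dosing used one drug alone or a fixed anchor-drug dose plus five library-drug doses (not always all listed) in √10 steps, and values are medians of duplicate plates.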

Dovitinib + Palbociclib = compound: CN1CCN(c2ccc3nc(-c4c(N)c5c(F)cccc5[nH]c4=O)[nH]c3c2)CC1 [Dovitinib] + CC(=O)c1c(C)c2cnc(Nc3ccc(N4CCNCC4)cn3)nc2n(C2CCCC2)c1=O [Palbociclib] (partner 0.5 µM)
In short: as §1

Dovitinib + Dasatinib = compound: CN1CCN(c2ccc3nc(-c4c(N)c5c(F)cccc5[nH]c4=O)[nH]c3c2)CC1 [Dovitinib] + Cc1nc(Nc2ncc(C(=O)Nc3c(C)cccc3Cl)s2)cc(N2CCN(CCO)CC2)n1 [Dasatinib] (partner 0.075 µM)
In short: as §1

Dovitinib + Pemetrexed = compound: CN1CCN(c2ccc3nc(-c4c(N)c5c(F)cccc5[nH]c4=O)[nH]c3c2)CC1 [Dovitinib] + Nc1nc2[nH]cc(CCc3ccc(C(=O)N[C@@H](CCC(=O)O)C(=O)O)cc3)c2c(=O)[nH]1 [Pemetrexed] (partner 0.2 µM)
In short: as §1

Cell Line	relative viability (Dovitinib + Vorinostat; first compound 0.02 µM)	relative viability (Dovitinib + Vorinostat; first compound 0.06325 µM)	relative viability (Dovitinib + Vorinostat; first compound 0.2 µM)	relative viability (Dovitinib + Vorinostat; first compound 0.6325 µM)	relative viability (Dovitinib + Vorinostat; first compound 2 µM)	relative viability (Dovitinib + Palbociclib; first compound 0.02 µM)	relative viability (Dovitinib + Palbociclib; first compound 0.06325 µM)	relative viability (Dovitinib + Palbociclib; first compound 0.2 µM)	relative viability (Dovitinib + Palbociclib; first compound 0.6325 µM)	relative viability (Dovitinib + Palbociclib; first compound 2 µM)	relative viability (Dovitinib + Dasatinib; first compound 0.02 µM)	relative viability (Dovitinib + Dasatinib; first compound 0.06325 µM)	relative viability (Dovitinib + Dasatinib; first compound 0.2 µM)	relative viability (Dovitinib + Dasatinib; first compound 0.6325 µM)	relative viability (Dovitinib + Dasatinib; first compound 2 µM)	relative viability (Dovitinib + Pemetrexed; first compound 0.02 µM)	relative viability (Dovitinib + Pemetrexed; first compound 0.06325 µM)	relative viability (Dovitinib + Pemetrexed; first compound 0.2 µM)	relative viability (Dovitinib + Pemetrexed; first compound 0.6325 µM)	relative viability (Dovitinib + Pemetrexed; first compound 2 µM)
201T	0.862	0.957	0.908	0.947	0.949	0.366	0.379	0.341	0.371	0.367	0.571	0.565	0.581	0.566	0.538	0.387	0.392	0.366	0.34	0.298
A-427	0.83	0.845	0.895	0.941	0.991	0.502	0.517	0.553	0.521	0.587	0.624	0.654	0.673	0.634	0.698	0.907	0.988	1.04	0.967	1.06
ABC-1	1.14	1.12	1.07	1.18	1.18	0.513	0.797	0.833	0.627	0.725	0.479	0.55	0.474	0.618	0.61					
BEN	0.551	0.542	0.578	0.598	0.57	0.477	0.46	0.456	0.478	0.492	0.32	0.272	0.321	0.326	0.307	0.713	0.812	0.633	0.836	0.697
CAL-12T	0.754	0.73	0.926	0.829	0.764	0.563	0.55	0.406	0.526	0.589	0.43	0.486	0.465	0.49	0.457	1.11	1.16	1.21	1.24	1.17
COR-L23	0.431	0.505	0.551	0.379	0.462	0.269	0.261	0.306	0.372	0.324	0.482	0.565	0.512	0.534	0.567	0.194	0.211	0.2	0.208	0.212
COR-L 105	0.867	0.801	0.833	0.69	0.794	0.434	0.421	0.46	0.419	0.427	0.34	0.34	0.332	0.439	0.393	1.23	1.09	1.05	1	0.92
ChaGo-K-1	0.739	0.814	0.758	0.766	0.706	0.927	0.936	0.866	0.912	0.881	0.632	0.559	0.603	0.595	0.526	0.263	0.25	0.251	0.258	0.26
EKVX	0.799	0.776	0.836	0.75	0.739	0.394	0.378	0.511	0.412	0.364	0.517	0.662	0.588	0.61	0.611	0.434	0.385	0.42	0.46	0.372
EMC-BAC-2	0.512	0.449	0.422	0.522	0.517	0.551	0.493	0.539	0.502	0.518	0.362	0.284	0.341	0.299	0.202	0.555	0.442	0.487	0.445	0.459
EPLC-272H	0.564	0.522	0.434	0.402	0.367	0.314	0.331	0.314	0.336	0.328	0.351	0.346	0.36	0.37	0.31	0.408	0.35	0.274	0.398	0.372
H3255	0.684	0.886	0.862	0.778	0.711	0.301	0.291	0.298	0.325	0.281	0.405	0.374	0.424	0.445	0.369	0.609	0.579	0.568	0.64	0.599
HARA	0.553	0.542	0.645	0.676	0.569	0.29	0.234	0.311	0.254	0.258	0.319	0.152	0.275	0.226	0.291	0.256	0.254	0.233	0.241	0.258
HCC-15	0.931	0.873	0.815	0.837	0.85	0.738	0.708	0.717	0.694	0.708	0.673	0.548	0.664	0.59	0.561	0.225	0.228	0.213	0.231	0.216
HCC-44	1.08	1.1	1.08	1.09	1.08	0.93	0.994	0.969	0.985	0.95						0.617	0.659	0.685	0.687	0.586
HCC-78	0.413	0.415	0.39	0.533	0.431	0.437	0.468	0.511	0.54	0.522	0.426	0.328	0.392	0.453	0.357	0.914	0.934	0.931	0.889	0.865
HCC-366	0.325	0.353	0.338	0.429	0.385	0.377	0.364	0.372	0.396	0.402	0.687	0.604	0.648	0.616	0.618	0.129	0.208	0.161	0.161	0.166
HCC-827	0.799	0.867	0.876	0.841	0.805	0.527	0.461	0.409	0.53	0.528	0.358	0.327	0.357	0.366	0.407	0.259	0.119	0.245	0.264	0.25

Cell Line	relative viability (Dovitinib + Vorinostat; first compound 0.02 µM)	relative viability (Dovitinib + Vorinostat; first compound 0.06325 µM)	relative viability (Dovitinib + Vorinostat; first compound 0.2 µM)	relative viability (Dovitinib + Vorinostat; first compound 0.6325 µM)	relative viability (Dovitinib + Vorinostat; first compound 2 µM)	relative viability (Dovitinib + Palbociclib; first compound 0.02 µM)	relative viability (Dovitinib + Palbociclib; first compound 0.06325 µM)	relative viability (Dovitinib + Palbociclib; first compound 0.2 µM)	relative viability (Dovitinib + Palbociclib; first compound 0.6325 µM)	relative viability (Dovitinib + Palbociclib; first compound 2 µM)	relative viability (Dovitinib + Dasatinib; first compound 0.02 µM)	relative viability (Dovitinib + Dasatinib; first compound 0.06325 µM)	relative viability (Dovitinib + Dasatinib; first compound 0.2 µM)	relative viability (Dovitinib + Dasatinib; first compound 0.6325 µM)	relative viability (Dovitinib + Dasatinib; first compound 2 µM)	relative viability (Dovitinib + Pemetrexed; first compound 0.02 µM)	relative viability (Dovitinib + Pemetrexed; first compound 0.06325 µM)	relative viability (Dovitinib + Pemetrexed; first compound 0.2 µM)	relative viability (Dovitinib + Pemetrexed; first compound 0.6325 µM)	relative viability (Dovitinib + Pemetrexed; first compound 2 µM)
HOP-62	0.469	0.469	0.588	0.667	0.797	0.355	0.456	0.465	0.396	0.499	0.643	0.601	0.64	0.632	0.662	0.272	0.337	0.32	0.269	0.385
IA-LM	0.962	0.883	1.13	0.973	0.897															
LC-2-ad	0.674	0.735	0.712	0.758	0.804	0.484	0.449	0.472	0.484	0.504	0.661	0.524	0.55	0.514	0.429	0.27	0.29	0.306	0.259	0.269
LCLC-97TM1	0.719	0.612	0.734	0.688	0.751	0.252	0.26	0.236	0.185	0.209	0.8	0.896	0.887	0.876	0.775	0.16	0.155	0.198	0.184	0.163
LCLC-103H	0.731	0.746	0.756	0.872	0.8	0.482	0.454	0.496	0.474	0.462	0.487	0.503	0.461	0.374	0.489	0.494	0.457	0.475	0.434	0.459
LK-2	0.262	0.403	0.373	0.373	0.364	0.648	0.734	0.676	0.646	0.854	0.282	0.242	0.281	0.325	0.396	0.309	0.274	0.287	0.342	0.265
LOU-NH91	0.961	0.846	0.919	0.984	0.94	0.526	0.528	0.535	0.553	0.525	0.586	0.553	0.549	0.64	0.574	0.368	0.386	0.404	0.363	0.358
LU99A	0.456	0.555	0.46	0.615	0.624	0.388	0.37	0.387	0.423	0.406	0.508	0.448	0.572	0.517	0.46	0.169	0.304	0.165	0.217	0.18
LXF-289	0.781	0.836	0.807	0.847	0.746	0.577	0.604	0.621	0.598	0.566	0.201	0.206	0.263	0.253	0.266	0.883	0.893	0.864	0.962	0.894
NCI-H23	0.551	0.699	0.616	0.735	0.643	0.482	0.58	0.574	0.515	0.541	0.837	0.729	0.976	0.731	0.734	0.79	0.592	0.623	0.674	0.658
NCI-H322M	0.768	0.831	0.807	0.926	0.84	0.46	0.471	0.468	0.482	0.487	0.24	0.263	0.243	0.249	0.284	0.597	0.613	0.634	0.607	0.6
NCI-H358	0.673	0.808	0.738	0.619	0.639	0.153	0.141	0.118	0.135	0.135	0.154	0.177	0.176	0.184	0.179	0.169	0.171	0.186	0.18	0.176
NCI-H596	0.746	0.606	0.569	0.517	0.694						0.646	0.523	0.552	0.647	0.534	0.512	0.493	0.506	0.51	0.532
NCI-H727	1.19	1.12	1.25	1.39	1.25	0.667	0.62	0.669	0.671	0.668	0.482	0.393	0.422	0.395	0.385					
NCI-H1563											0.478	0.475	0.469	0.507	0.509	0.692	0.922	0.933	0.913	0.829
NCI-H1648	0.402	0.422	0.425	0.361	0.516	0.325	0.287	0.235	0.247	0.255						0.521	0.729	0.628	0.804	0.631
NCI-H1792						0.642	0.668	0.684	0.583	0.643	0.873	0.738	0.775	0.793	0.803	0.909	0.631	0.672	0.972	0.827
